Biological target: human OX2R (Homo sapiens (Human), UniProt O43614)
Assay: IPOne (IP-One, Cisbio) orexin receptor agonist assay in CHO cells expressing human OX2R
Conditions: hOX2R_IP, percentage of mean max effect of a reference compound at 1 uM (100% activity vs Orexin A); for Emax: CHO
Method: Both the OX1R and/or OX2R G-coupled protein receptors (GPCRs) couple through the Gaq signaling pathway, which ultimately promotes calcium mobilization via inositol triphosphate (IP3) production.
In a typical experiment, the OX1 and OX2 receptor agonist activity is determined in accordance with the following general experimental method. Chinese hamster ovary (CHO) cells expressing human OX1R and/or the human OX2R were grown in Iscove's modified DMEM containing glutaMAX®, 1% G418, 100 U/mL penicillin, 100 μg/mL streptomycin and 10% heat-inactivated qualified fetal bovine serum (FBS). […] During this incubation, IP-one detection reagents were prepared (38:1:1 lysis buffer:D2:AB-cryptate reagents).
For each compound, data were fit to a four parameter logistic fit (ActivityBase software) and the EC50 was reported as the inflection point of the resulting curve.

Chain of human OX2R (O43614 whole entry): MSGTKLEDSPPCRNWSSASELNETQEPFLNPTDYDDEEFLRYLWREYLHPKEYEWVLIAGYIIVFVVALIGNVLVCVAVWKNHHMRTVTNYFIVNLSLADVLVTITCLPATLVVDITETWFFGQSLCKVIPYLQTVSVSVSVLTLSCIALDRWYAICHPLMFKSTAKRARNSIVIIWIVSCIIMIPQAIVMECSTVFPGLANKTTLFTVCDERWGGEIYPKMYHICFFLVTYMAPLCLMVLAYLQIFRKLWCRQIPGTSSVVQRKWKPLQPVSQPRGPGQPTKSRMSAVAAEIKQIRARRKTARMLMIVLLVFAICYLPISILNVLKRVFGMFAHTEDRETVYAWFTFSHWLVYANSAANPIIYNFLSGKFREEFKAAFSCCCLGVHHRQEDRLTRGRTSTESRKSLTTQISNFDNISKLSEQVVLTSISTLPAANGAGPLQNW

| Compound | Emax (%) | Emax [%] |
| --- | --- | --- |
| COC(=O)N1[C@H](C)C[C@H](NS(=O)(=O)N(C)CC2CS(=O)(=O)C2)[C@@H]1CO[C@H]1CC[C@@H](c2cccc(F)c2)CC1 [Example 58, methyl (2R,3S,5R)-3-((N-((1,1-dioxidothietan-3-yl)methyl)-N-methylsulfamoyl)amino)-2-((((1s,4S)-4-(3-fluorophenyl)cyclohex-yl)oxy)methyl)-5-methylpyrrolidine-1-carboxylate] | 101 |  |
| COC(=O)N1[C@H](C)C[C@H](NS(=O)(=O)N(C)CCOC(F)(F)F)[C@@H]1CO[C@H]1CC[C@@H](c2cccc(F)c2)CC1 [Example 59, methyl (2R,3S,5R)-2-((((1s,4S)-4-(3-fluorophenyl)cyclohex-yl)oxy)methyl)-5-methyl-3-((N-methyl-N-(2-(trifluoromethoxy)ethyl)sulfamoyl)amino)pyrro-lidine-1-carboxylate] | 99 |  |
| COC(=O)N1[C@H](C)C[C@H](NS(=O)(=O)CC(F)F)[C@@H]1CO[C@H]1CC[C@@H](c2cccc(F)c2)CC1 [Example 60, Methyl (2R,3S,5R)-3-((2,2-difluoroethyl)sulfonamido)-2-((((1s,4S)-4-(3-fluorophenyl)-cyclohexyl)oxy)methyl)-5-methylpyrrolidine-1-carboxylate] | 99 |  |
| COCCS(=O)(=O)N[C@H]1C[C@@H](C)N(C(=O)OC)[C@H]1COC1CCC(c2cccc(F)c2)CC1 (stereo partly drawn) [Example 61] |  | 105 |
| COC(=O)N1[C@H](C)C[C@H](NS(=O)(=O)CF)[C@@H]1COC1CCC(c2cccc(F)c2)CC1 (stereo partly drawn) [Example 62, methyl (2R,3S,5R)-3-((fluoromethyl)sulfona-mido)-2-((((1s,4S)-4-(3-fluorophenyl)cyclohex-yl)oxy)methyl)-5-methylpyrrolidine-1-carboxylate] |  | 98 |
| COC(=O)N1[C@H](C)C[C@H](NS(=O)(=O)N(C)C)[C@@H]1CO[C@H]1CC[C@@H](c2ccc(C#N)c(C)c2)CC1 [Example 63, Methyl (2R,3S,5R)-2-((((1s,4S)-4-(4-cyano-3-methylphenyl)cyclohexyl)oxy)methyl)-3-((N,N-dimethylsulfamoyl)amino)-5-methylpyrrolidine-1-carboxylate] | 100 |  |
| COC(=O)N1[C@H](C)C[C@H](NS(=O)(=O)N(C)C)[C@@H]1CO[C@H]1CC[C@H](c2ccc(C#N)c(C)c2)CC1 [Example 64, Methyl (2R,3S,5R)-2-((((1r,4R)-4-(4-cyano-3-methylphenyl)cyclohexyl)oxy)methyl)-3-((N,N-dimethylsulfamoyl)amino)-5-methylpyrrolidine-1-carboxylate] | 99 |  |
| CCc1ccccc1[C@H]1CC[C@@H](OC[C@H]2[C@@H](NS(=O)(=O)N(C)C)C[C@@H](C)N2C(=O)OC)CC1 [Example 65, Methyl (2R,3S,5R)-3-((N,N-dimethylsulfamoyl)amino)-2-((((1s,4S)-4-(2-ethylphenyl)cyclohexyl)oxy)methyl)-5-methylpyrrolidine-1-carboxylate] |  | 101 |
| CCc1ccccc1[C@H]1CC[C@H](OC[C@H]2[C@@H](NS(=O)(=O)N(C)C)C[C@@H](C)N2C(=O)OC)CC1 [Example 66, methyl (2R,3S,5R)-3-((N,N-dimethylsulfamoyl)amino)-2-((((1r,4R)-4-(2-ethylphenyl)cyclohexyl)oxy)methyl)-5-methylpyrrolidine-1-carboxylate] |  | 100 |
| COC(=O)N1[C@H](C)C[C@H](NS(C)(=O)=O)[C@@H]1CO[C@H]1CC[C@H](c2ncccn2)CC1 [Example 69, Methyl (2R,3S,5R)-5-methyl-3-(methylsulfonamido)-2-((((1r,4R)-4-(pyrimidin-2-yl)cyclohexyl)oxy)methyl)pyrrolidine-1-carboxylate] | 98 |  |
| COC(=O)N1[C@H](C)C[C@H](NS(C)(=O)=O)[C@@H]1CO[C@H]1CC[C@@H](c2ncccn2)CC1 [Example 70, Methyl (2R,3S,5R)-5-methyl-3-(methylsulfonamido)-2-((((1s,4S)-4-(pyrimidin-2-yl)cyclohexyl)oxy)methyl)pyrrolidine-1-carboxylate] | 99 |  |
| COC(=O)N1[C@H](C)C[C@H](NS(C)(=O)=O)[C@@H]1CO[C@H]1CC[C@@H](c2cc(F)cc(F)c2)CC1 [Example 71, Methyl (2R,3S,5R)-2-((((1s,4S)-4-(3,5-difluorophenyl)cyclohexyl)oxy)methyl)-5-methyl-3-(methylsulfonamido)pyrrolidine-1-carboxylate] | 102 |  |
| COC(=O)N1[C@H](C)C[C@H](NS(C)(=O)=O)[C@@H]1CO[C@H]1CC[C@H](c2cc(F)cc(F)c2)CC1 [Example 72, Methyl (2R,3S,5R)-2-((((1r,4R)-4-(3,5-difluorophenyl)cyclohexyl)oxy)methyl)-5-methyl-3-(methylsulfonamido)pyrrolidine-1-carboxylate] | 100 |  |
| COC(=O)N1[C@H](C)C[C@H](NS(C)(=O)=O)[C@@H]1CO[C@H]1CC[C@@H](c2ccc(F)c(F)c2)CC1 [Example 73, Methyl (2R,3S,5R)-2-((((1s,4S)-4-(3,4-difluorophenyl)cyclohexyl)oxy)methyl)-5-methyl-3-(methylsulfonamido)pyrrolidine-1-carboxylate] |  | 101 |
| methyl (CIS)-5-ethynyl-3-(methylsulfonamido)-2-((((CIS)-4-phenylcyclohexyl)oxy)methyl)-pyrrolidine-1-carboxylate [Example 47] | 101 |  |

— patent US11098029B2, “5-alkyl pyrrolidine orexin receptor agonists” (Merck Sharp & Dohme Corp., priority 2019, dated 2021)
